According to ChEMBL document CHEMBL3886587, “Antagonists of prostaglandin EP3 receptor” (2016):

Target: T1, Prostaglandin E2 receptor EP3 subtype (Homo sapiens, UniProt P43115)
T1 sequence (P43115 whole entry): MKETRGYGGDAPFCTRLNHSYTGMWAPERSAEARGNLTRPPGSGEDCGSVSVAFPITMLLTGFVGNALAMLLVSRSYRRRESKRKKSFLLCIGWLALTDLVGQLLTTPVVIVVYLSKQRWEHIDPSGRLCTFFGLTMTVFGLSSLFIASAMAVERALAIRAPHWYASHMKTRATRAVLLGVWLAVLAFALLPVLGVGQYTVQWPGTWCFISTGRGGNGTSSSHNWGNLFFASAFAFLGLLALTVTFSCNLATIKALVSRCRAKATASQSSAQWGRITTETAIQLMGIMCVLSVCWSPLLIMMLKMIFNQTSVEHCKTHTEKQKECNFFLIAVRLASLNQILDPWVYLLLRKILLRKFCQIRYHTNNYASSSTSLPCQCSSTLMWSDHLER
Experiment: EP3 Radioligand SPA Binding Assay: Test compounds were half log serially diluted in 100% DMSO (J. T. Baker #922401). 1 uL of each compound was added to appropriate wells of a 384-well plate (Matrix Cat #4322). Unlabeled PGE2 (Tocris Cat #2296) at a final concentration of 1 uM was used to determine non-specific binding. 1 uL of 100% DMSO (J. T. Baker #922401) was used to determine total binding. Millipore EP3 Chem1 membranes (prepared in-house from cell paste derived from the Millipore ChemiSCREEN Human Recombinant EP3 Prostanoid Receptor Calcium-Optimized Stable Cell Line (Millipore Cat #HTS092C. http://www.millipore.com/catalogue/item/hts092c)) were thawed and diluted in binding buffer (50 mM Hepes pH 7.4 (Lonza Cat #17-737), 5 mM MgCl2 (Sigma-M1028), and 0.1% BSA (Sigma A-7409)) to a final concentration of 1 ug/25 uL. 25 uL of diluted membranes were added to prepared compound plates. WGA coated PVT SPA Beads (Perkin Elmer Cat #RPNQ0060) were diluted in binding buffer to a concentration of 4 ug/ul, and 25 uL of the SPA bead mixture was then added to each well for a final assay concentration of 100 ug/well. [3H]-PGE2 (Perkin Elmer Cat #NET428) was diluted in binding buffer to a concentration of […], and 25 uL was added to all wells for a final assay concentration of 1.125 nM. Plates were incubated for 30 minutes at r.t. (approximately 25° C.) with shaking. […]

Cn1ncc2c(F)cc(-c3ccc([C@@]4(C)CCCNC4=O)c(=O)[nH]3)cc21
Ki: 13.9 nM
